US20130005812A1, “METHOD FOR ALLEVIATING ALLERGIC ASTHMA AND ALLERGIC RESPONSE BY USING BITTER MELON COMPOSITION” (NATIONAL TAIWAN UNIVERSITY, priority 2011, published 2013)

How the values were obtained:
Format in all cases: in vivo, BALB/c mice
[1] = test system: OVA-sensitized mice; test: Leukocyte numbers in BALF; settings: FIG. 3A-3B
Method: (§1) Inbred female BALB/c mice (4 weeks old) were purchased from the Laboratory Animal Center, National Taiwan University and housed in a room with constant temperature of 23±2° C. The animal room was kept on a 12-h light and 12-h dark cycle. The mice were housed and kept on free diet and water to acclimatize before feeding the experimental diet. Diet ingestions are recorded every 3˜4 days, and mice body weight were recorded every week. When mice were in 8 week old, the mice were sensitized and challenged to induce allergic reaction at week 8, 10 and 12 by an intraperitonal injection (i.p.) of antigen containing ovalbumin antigen and adjuvant (Imject® Alum). Blood samples were collected on two days before injection and on two weeks after last injection for analysis of OVA-specific antibodies. […] Change of mice airway resistance was measured after 13 days of feeding, and mice were sacrificed on day 16.
After mice were sacrificed, fur and skin in the mice neck were incised and muscle surrounding the trachea was tear open to expose the trachea. […] Total leukocytes were counted with a hemocytometer using trypan blue dye exclusion method. […] Two hundreds of leukocytes were counted on each slide, which includes four different cells, eosinophil, neutrophil, lymphocyte and monocyte.

[2] = Organ weight and relative organ weight of OVA-sensitized mice
Method: (§2) Inbred female BALB/c mice (4 weeks old) were purchased from the Laboratory Animal Center, National Taiwan University and housed in a room with constant temperature of 23±2° C. The animal room was kept on a 12-h light and 12-h dark cycle. The mice were housed and kept on free diet and water to acclimatize before feeding the experimental diet. Diet ingestions are recorded every 3˜4 days, and mice body weight were recorded every week. When mice were in 8 week old, the mice were sensitized and challenged to induce allergic reaction at week 8, 10 and 12 by an intraperitonal injection (i.p.) of antigen containing ovalbumin antigen and adjuvant (Imject® Alum). Blood samples were collected on two days before injection and on two weeks after last injection for analysis of OVA-specific antibodies. Mice were divided in five groups based on OVA-specific IgE antibody and body weight, namely OVA-oil group (the control group), OVA-BGP group (feed containing 5% of freeze dried bitter melon powder), OVA-CLN group (tube feeding containing 35 mg CLN), OVA-Pred (prednisolone, the positive control group), and PBS-oil (the non-sensitized group), respectively. Mice diet was based on AIN-76 formulation (feed composition referred to J. Nutri. 107: 1340-1384, 1977). Administration of steroid prednisolone by tube feeding started 4 days before AHR induction and last to the day sacrificed. After 4 days of feeding, mice were challenged with 5% aerosol of OVA solution, while the PBS-oil group was administered with aerosol PBS. Change of mice airway resistance was measured after 13 days of feeding, and mice were sacrificed on day 16.
After 16 days of feeding, the absolute weight of heart of OVA-BGP treated mice was less than the OVA-oil treated mice. […] There was no difference between the OVA-CLN group and control group. […] The absolute weight and relative weight of lung of PBS-oil mice group were lower than sensitized mice groups.

[3] = test system: splenocytes of OVA-sensitized mice; test: Cytokine secretion by OVA-specific stimulated splenocytes ex vivo; settings: mean ± SD
Method: as §2
Mice were sacrificed and their spleens were aseptically removed and suspended in 3 cm incubation dish containing 3 ml TCM/RPMI solution. Spleen tissue was minced with rear end of syringe and the upper layer cell suspension was collected and placed in 15 ml centrifuge tube. Another 3 ml HBSS buffer was added to wash the dish and residual cells were collected. Cell suspensions were centrifuged at 1500 rpm for 10 mins Supernatant was discard and the precipitated cells were re-suspend in ACK lysing buffer. After 1 minute, HBSS buffer was added to the suspension and then centrifuged at 1500 rpm for 10 mins Cell pellet was washed with HBSS buffer for 3 times. 2 ml of TCM/RPMI medium was added to re-suspend the cells. Cell number was counted and adjusted to 1×10^7 cell/ml. 500 μl of the cell suspension was added to 48 well plates. […] After 48 hours incubation, supernatants were collected and stored at −80° C.
BD Pharmingen System was provided as an example. Cytokine concentration was determined by ABC (avidin-biotin conjugated system) ELISA method. Primary antobiody was added to the 96-microwell plate wells and incubated at 4° C. overnight. After incubation, plates were washed four times with PBST buffer. To block non-specific binding, block buffer were added to each well and the plates were incubated at room temperature for 1 h. After incubation, plates were washed five times with ELISA wash buffer. Appropriately diluted samples or standard solution were then added to the 96-microwell plate wells and the plates were incubated at room temperature for 2˜3 h. After incubation, plates were washed with buffer six times then secondary antibody for detection was added to each well. Plates were incubated for another 1 h. After incubation, plates were washed seven times with ELISA wash buffer. […] The plates were measured the absorbance at 405 nm by ELISA reader.

[4] = test system: OVA-sensitized mice; test: Airway hyperresponsiveness (Penh, methacholine challenge, whole-body plethysmograph); settings: Mch challenge 12.5 mg/ml or higher; after 13 days feeding; FIG. 2
Method: as §1, with “Alum).” for “Alum). Blood samples were collected on two days before injection and on two weeks after last injection for analysis of OVA-specific antibodies.”, “16. […]” for “16.”
After an inhaled antigen challenge, airway resistance of the mice were tested the following day using Buxco system (Biosystem XA, Buxco Electronics Inc. Sharon, Conn., USA), in which the differential pressure transducer (Buxco) and preamplifier (MAX II, Buxco) were used to collect change information of mice respiratory and to calculate lung Penh value (Penh, enhanced pause). […] After excess aerosol was evacuated, an average Penh value per minute was recorded. […] The same challenge process was performed at each concentration, and an average Penh value per minute was recorded after 3 mins after each challenge. […]

[5] = test system: OVA-sensitized mice; test: Cytokine, eotaxin and PGE2 level in BALF (ELISA); settings: day 16; mean ± SD
Method: as §2
After mice were sacrificed, fur and skin in the mice neck were incised and muscle surrounding the trachea was tear open to expose the trachea. A small hole was made on the trachea near the head with scissors to intubate tracheal tubing. After intubation, their lungs and airways were lavaged with […] of sterile PBS. Two ml of bronchoalveolar lavage fluid (BALF) was centrifuged at 1500 rpm for 7 mins at 4° C. The supernatant (BALF) was collected and stored at −80° C. for cytokine concentration determination. The cell pellet was washed with HBSS buffer twice and re-suspended in 10% FBS/RPMI medium. Total leukocytes were counted with a hemocytometer using trypan blue dye exclusion method. After the cell concentration was adjusted to 5×10^5 cell/ml, aliquots of 100 μl total cells were centrifuged with cytospin at 500 rpm for 2 mins and then stained with Liu A for 30 seconds. After excess stain was washed off and air dried, the cells were stained with Liu B for 5 seconds. Slides were air-dried and sealed with Arabic gum. […] Two hundreds of leukocytes were counted on each slide, which includes four different cells, eosinophil, neutrophil, lymphocyte and monocyte.
BD Pharmingen System was provided as an example. Cytokine concentration was determined by ABC (avidin-biotin conjugated system) ELISA method. Primary antobiody was added to the 96-microwell plate wells and incubated at 4° C. overnight. After incubation, plates were washed four times with PBST buffer. To block non-specific binding, block buffer were added to each well and the plates were incubated at room temperature for 1 h. After incubation, plates were washed five times with ELISA wash buffer. Appropriately diluted samples or standard solution were then added to the 96-microwell plate wells and the plates were incubated at room temperature for 2˜3 h. After incubation, plates were washed with buffer six times then secondary antibody for detection was added to each well. Plates were incubated for another 1 h. After incubation, plates were washed seven times with ELISA wash buffer. Streptavidin-HRP (horseradish peroxidase) was added to each well and the reaction was allowed to react for 30 mins. After reaction, the plates were washed with ELISA buffer eight times and then HRP-substrate solution was added to the 96-microwell plate wells. […]

[6] = Growth and feed intake of OVA-sensitized mice
Method: as §2
BALB/c mice were sensitized every other week for three times. Two weeks before the last sensitization mice were divided into five groups according to OVA-specific IgE and body weight, then different experimental diet were provided for 16 days. […] In the aspect of daily ingestion, no difference was observed among these mice groups.

[7] = after 16 days feeding, mean ± SD

Q: What does the source list for `C[C@]12C=CC(=O)C=C1CC[C@@H]1[C@@H]2[C@@H](O)C[C@@]2(C)[C@H]1CC[C@]2(O)C(=O)CO` [OVA-Pred, prednisolone]?
A: Total leukocyte number in BALF vs OVA-oil group [1]: less than those in the OVA-oil group; Relative weight of liver vs OVA-oil group ([2]; in words): significant lower; IFN-γ secretion by splenocytes [3]: 110 ± 50 pg/mL; IL-2 secretion by splenocytes [3]: 66.9 ± 20.9 pg/mL; IL-4 secretion by splenocytes [3]: 33.4 ± 14.5 pg/mL; IL-5 secretion by splenocytes [3]: 2.12 ± 1.85 ng/mL; IL-13 secretion by splenocytes [3]: 322 ± 118 pg/mL; Airway hyperresponsiveness (Penh) vs OVA-oil group [4]: alleviation of AHR

Q: Which “Eotaxin in BALF” value [5] does the source give for `CCCC/C=C/C=C/C=C\CCCCCCCC(=O)O` [OVA-CLN, Conjugated linolenic acid] here?
A: 27.3 ± 8.5 pg/mL

Q: What about the “IL-1β in BALF” value [5] of the same compound?
A: 21.0 ± 9.5 pg/mL

Q: What about the “IL-4 in BALF” value [5] of the same compound?
A: 39.1 ± 33.9 pg/mL

Q: What about the “IL-5 in BALF” value [5] of the same compound?
A: 326 ± 183 pg/mL

Q: What about the “IL-6 in BALF” value [5] of the same compound?
A: 12.2 ± 27.8 pg/mL

Q: What about the “IL-13 in BALF” value [5] of the same compound?
A: 254 ± 75 pg/mL

Q: And the “PGE2 in BALF” value [5]?
A: 17.2 ± 16.1 ng/mL

Q: And the “TNF-α in BALF” value [5]?
A: 64.5 ± 29.3 pg/mL

Q: And the “Eosinophils in BALF vs OVA-oil group” value [1]?
A: less eosinophils infiltration

Q: And the “Initial Body weight” value ([6]; 14 week-old, before experimental feeding, mean ± SD)?
A: 22.7 ± 1.30 g

Q: What about the “Final Body Weight” value ([6]; 16 week-old, after 16 days feeding, mean ± SD) of the same compound?
A: 22.0 ± 1.52 g

Q: What about the “Effect on mice growth (body weight)” value ([6]; 16 days feeding, in words) of the same compound?
A: did not affect mice growth

Q: What about the “Feed Intake” value ([6]; mean ± SD) of the same compound?
A: 2.99 ± 0.31 g/day

Q: And the Heart absolute weight [2, 7]?
A: 0.12 ± 0.02 g

Q: And the Heart relative weight [2, 7]?
A: 0.56 ± 0.06%

Q: And the Kidney absolute weight [2, 7]?
A: 0.29 ± 0.01 g

Q: What about the Kidney relative weight [2, 7] of the same compound?
A: 1.30 ± 0.05%

Q: What about the Liver absolute weight [2, 7] of the same compound?
A: 1.28 ± 0.15 g

Q: What about the Liver relative weight [2, 7] of the same compound?
A: 5.80 ± 0.38%

Q: And the Lung absolute weight [2, 7]?
A: 0.48 ± 0.08 g

Q: And the Lung relative weight [2, 7]?
A: 2.21 ± 0.46%

Q: What about the Spleen absolute weight [2, 7] of the same compound?
A: 0.080 ± 0.026 g

Q: And the Spleen relative weight [2, 7]?
A: 0.37 ± 0.12%

Q: What about the “Airway hyperresponsiveness (Penh) vs OVA-oil group” value [4] of the same compound?
A: alleviation of AHR
